Source: ChEMBL document CHEMBL4819064, “Discovery of new pyrimidopyrrolizine/indolizine-based derivatives as P-glycoprotein inhibitors: Design, synthesis, cytotoxicity, and MDR reversal activities” (Eur J Med Chem, 2021)

Tests used:
A2780 = test: Cytotoxicity against human A2780 cells assessed as reduction in cell viability incubated for 72 hrs by MTT assay; settings: A2780, 72 h
MRC5 = test: Cytotoxicity against human MRC5 cells assessed as reduction in cell viability incubated for 72 hrs by MTT assay; settings: MRC5, 72 h
[1] = Selectivity index, ratio of IC50 for human MRC5 cells to IC50 for human A2780 cells; assay type: toxicity; settings: MRC5 cells versus A2780 cells, read-out: Ratio IC50
NCI/ADR-RES [2] = test: Cytotoxicity against human MCF7/ADR cells assessed as reduction in cell viability incubated for 72 hrs in presence of doxorubicin by MTT assay; assay type: functional, cell-based
NCI/ADR-RES [3] = test: Synergistic cytotoxicity against human MCF7/ADR cells assessed as combination index at 0.5 uM after 72 hrs in presence of 0.5 uM doxorubicin by MTT assay; assay type: functional
NCI/ADR-RES [4] = test: Synergistic cytotoxicity against human MCF7/ADR cells assessed as combination index at 1 uM after 72 hrs in presence of 1 uM doxorubicin by MTT assay; assay type: functional
MCF7 [5] = test: Cell cycle arrest in human MCF7 cells assessed as accumulation at pre-G1 phase at 0.250 uM incubated for 72 hrs by PI staining based flow cytometric analysis (reference value: 1.6 +/- 0.2 %); assay type: functional; settings: dose 0.25 µM
MCF7 [6] = test: Cell cycle arrest in human MCF7 cells assessed as accumulation at pre-G1 phase at 0.5 uM incubated for 72 hrs by PI staining based flow cytometric analysis (reference value: 1.6 +/- 0.2 %); assay type: functional
MCF7 [7] = test: Cell cycle arrest in human MCF7 cells assessed as accumulation at S phase at 0.125 uM incubated for 72 hrs by PI staining based flow cytometric analysis (reference value: […] +/- 2.6 %); assay type: functional
MCF7 [8] = test: Cell cycle arrest in human MCF7 cells assessed as accumulation at S phase at 0.5 uM incubated for […] staining based flow cytometric analysis (reference value: […] +/- 2.6 %); assay type: functional
MCF7 [9] = test: Cell cycle arrest in human MCF7 cells assessed as accumulation at G2/M phase at 0.125 uM incubated for […] staining based flow cytometric analysis (reference value: 15 +/- 1.5 %); assay type: functional
MCF7 [10] = test: Induction of apoptosis in human MCF7 cells assessed as necrotic cells at 0.125 uM after 72 hrs by Annexin V-FITC/propidium iodide staining-based flow cytometric analysis (reference value: 6.2 %); assay type: functional
MCF7 [11] = test: Induction of apoptosis in human MCF7 cells assessed as viable cells at 0.5 uM after 72 hrs by Annexin V-FITC/propidium iodide staining-based flow cytometric analysis (reference value: 86.4 %); assay type: functional; settings: read-out: Activity

**Q.** For `N#Cc1c2n(c3c(=O)n(-c4ccccc4)cnc13)CCCC2`, which IC50 (A2780) is on record?
**A.** The IC50 was 0.06 µM.

**Q.** And the IC50 (MRC5)?
**A.** Its IC50 is 1.45 µM.

**Q.** And the selectivity ratio [1]?
**A.** Its selectivity ratio is 24.2.

**Q.** And the IC50 (NCI/ADR-RES [2])?
**A.** Its IC50 is 1.17 µM.

**Q.** And the CI (NCI/ADR-RES [3])?
**A.** The CI was 1.7.

**Q.** What about the CI (NCI/ADR-RES [4]) of the same molecule?
**A.** Its CI is 0.025.

**Q.** And the Activity (MCF7 [5])?
**A.** The Activity was 1.2%.

**Q.** And the Activity (MCF7 [6])?
**A.** The Activity was 1.6%.

**Q.** And the Activity (MCF7 [7])?
**A.** The Activity was 13.4%.

**Q.** What about the Activity (MCF7 [8]) of the same molecule?
**A.** The Activity was 4.1%.

**Q.** And the Activity (MCF7 [9])?
**A.** Its Activity is 15.5%.

**Q.** And the Activity (MCF7 [10])?
**A.** Its Activity is 5.4%.

**Q.** And the viability at 0.5 µM (MCF7 [11])?
**A.** Its viability at 0.5 µM is 70.3%.
